Experiment [1] deals with T1, GP IIb IIIa (Homo sapiens, UniProt P05106+P08514). The experiment is described as follows: Fibrinogen-GP IIb IIIa Receptor ELISA Binding Assay. Further details: from tissue; host or cells: outdated human platelets. The conditions noted are these: purified human platelet GP IIb IIIa, fibrinogen-coated plates; read-out: ELISA IC50 Fibrinogen GPIIb IIIa. On the procedure:
The method used is essentially that described in Nachman and Leung (J. Clin. Invest., 69:263-269 [1982]). The GP IIb IIIa is essentially purified as described in Fitzgerald et al., (Anal. Biochem. 151:169-177 [1985]).
Outdated human platelets are washed 3 times with 10 mM tris-HCl, 150 mM NaCl (TBS), 1 mM EDTA, pH 7.5, and centrifuged at 2000×g to pellet cells. Cells are lysed in 5 pellet volumes of TBS, 1% Triton X-100, 1 mM Ca2 Cl2, and followed by centrifugation at 30,000×g. The supernatant fraction is collected and the supernatant is loaded onto a concanavalin-A column, previously equilibrated in TBS, 1 mM Ca2 Cl2, 0.1% Triton, 0.05% NaN3 and eluted with 0.2M α-methylmannoside. Fractions are pooled and loaded onto a heparin-agarose column. The flowthrough is collected and concentration on an Amicon YM 30 filter to a volume of approximately 5-10 mi. The concentrate is then applied to an S-300 column (500 ml) and 6 ml fractions are collected. The GP IIb IlIa containing fractions are collected, pooled, and stored at -80° C.
The purification of fibrinogen is conducted essentially as described by Lipinska et al., (J. Lab. Clin. Med. 507, [1974]). Briefly, a 0.3% w/v solution of human fibrinogen (Kabi #5302) is dissolved in 150 mM NaCl. Saturated (NH4)2 SO4 is added dropwise with stirring to the fibrinogen solution to obtain about 16% saturation. The precipitate is spun down in appropriate size bottles at 2000×g. The supernatant is decanted and the precipitate resuspended in 150 mM NaCl (approximately 50% of the original volume). NH4 SO4 is again added dropwise to obtain 16% saturation. The suspension is spun down and the precipitate is resuspended in Tris-saline in a minimal volume (approximately 5% of the original volume). Any remaining insoluble material is spun down at 2000 rpm in a Sorval type centrifuge and the fibrinogen supernatant is decanted and dialyzed overnight at 4° C. against Tris-saline. Characterization of the fibrinogen is by the Bradford protein assay, SDS-PAGE, and/or Western blotting using well known standard procedures.
Briefly, 96 well plates are coated (Type Nunc 1 Maxisorp™) with 10 μg/ml purified fibrinogen (100 μl/well), and allowed to stand overnight at 4° C. The plates are washed three times with PBS Tween (0.137M NaCl, 0.003M KCl, 0.008M Na2 HPO4, 0.001M KH2 PO4, pH 7.4 at room temperature, 0.05% Tween-20) and blocked for 1 to 2 hours at room temperature with 200 μl/well TNCNT (which is 0.5% BSA, 20mM Tris, pH 7.5 at room temperature, 120 mM NaCl, 0.2% NAN3, 2mM CaCl2, 0.05% Tween 20, 0.5% BSA [Calbiochem RIA grade or better]) on a plate shaker. The plates are again washed three times with PBS/Tween and then 50 μl of sample in TNCNT is added. The mixture is incubated for 15 minutes at room temperature on a plate shaker. The stock solution of purified GP IIb IIIa receptor from human platelets, (0.4-1.0 mg/ml GP IIb IIIa in 0.1% Triton X-100, 1 mM CaCl2, 20 mM Tris, 150 mM NaCl, 0.05% NaN3 in 0.3M N-acetyl glucosamine pH 7.5, stored at -70° C.), is reconstituted to about 40 μg/ml in TNCNT. Fifty μl of this diluted GP IIb IIIa is then added to each well and incubated on a plate shaker at room temperature. After one hour, the plates are washed four times with PBS/Tween and 100 μl of a polyclonal or monoclonal antibody specific for GP IIIa such as AP3 (1 μg/ml) (See e.g. Newman et al., Blood, 65:227-232 [1985]) in ELISA buffer (PBS, 0.5% BSA, 0.05% Tween 20, 0.01% Thimerasol) is added. After a one hour incubation at room temperature on a plate shaker, the samples are washed 4 times with PBS/Tween. One hundred μl of GAM-HRP (horse radish peroxidase conjugate of goat anti-mouse IgG [Pel-Freeze Cat. 715305-1] dissolved in ELISA buffer) previously diluted to 1:10,000 is then added and the samples are incubated 1 hour at room temperature on a plate shaker. […]
(An ELISA detects its analyte on a solid surface through an enzyme-linked reagent.)

Experiment [2] deals with T1, GP IIb IIIa. The experiment is described as follows: GP IIb IIIa -von Willebrand factor (vWF) ELISA Assay. It is filed as binding. Further details: GP IIb IIIa, prepared by the method of Fitzgerald et al; from tissue. The conditions noted are these: GP IIb IIIa-coated plates, vWF; read-out: ELISA IC50 GPIIb IIIa vWF. As for the experimental part: Microtiter plates are coated with 1.0 μg/ml GP IIb IIIa, prepared by the method of Fitzgerald et al., (Anal. Biochem. 151:169-177 [1985]) and allowed to incubate overnight in coat buffer. The plates are then washed three times in wash buffer (0.05% Tween 20 in PBS) and 150 μl of assay buffer is added and allowed to incubate for 1-2 hours at room temperature on plate shaker. The plates are washed three times and 50 μl of 2x inhibitor in assay buffer (Assay buffer: 0.5% BSA/50 mM Tris, 100 mM NaCl, 1.0 mM CaCl2, 1.0mM MgCl2, 1.0 mM MnCl2; coat buffer is the same but without BSA) is added. Fifty μl of 4.0 μg/ml vWF (prepared as described by Ledford et al., Thrombosis and Haemostasis, 64(4): 569-575 [1990]) in assay buffer is then added and allowed to incubate for one hour at room temperature on plate-shaker. The plates are washed three times and the antibody mixture is added (1:5000 of mouse anti-vWF and 1:5000 of rabbit-anti-mouse-Fc-HRP, both commercially available) in assay buffer and incubated for 1 hour at room temperature on plate-shaker. Plates are again washed three times and 100 μl of substrate solution (10 mg OPD, 6.5 μl H2 O2, 15 ml phosphate citrate buffer) is added and incubated at room temperature. The color change of OPD/H2 O2 reagent is read at 492 nm with a 405 nm reference wavelength on the filter photometer.

Structures are written as SMILES. *1 amine or outer side, *2 acyl side, *3 side chain or, on linkers, in order; H or OH if unused. Where a SMILES comes first, the peptide text is derived from it. Bridges are numbered along the chain shown (N, C = ends). [ ]: non-standard residue; d: D form. The star is where a group is joined. Ethylenediamine = C(CN[*:2])N[*:1]; Aad = N[C@@H](CCCC(=O)O)C(=O)O; NH(CH2)5NH2 = NCCCCCN*; NH(CH2)4NH2 = NCCCCN*; NH(CH2)3NH2 = NCCCN*

The term IC50 denotes the point on the concentration scale where inhibition reaches its midpoint.

T1 sequence (P08514 32-887 limits assumed): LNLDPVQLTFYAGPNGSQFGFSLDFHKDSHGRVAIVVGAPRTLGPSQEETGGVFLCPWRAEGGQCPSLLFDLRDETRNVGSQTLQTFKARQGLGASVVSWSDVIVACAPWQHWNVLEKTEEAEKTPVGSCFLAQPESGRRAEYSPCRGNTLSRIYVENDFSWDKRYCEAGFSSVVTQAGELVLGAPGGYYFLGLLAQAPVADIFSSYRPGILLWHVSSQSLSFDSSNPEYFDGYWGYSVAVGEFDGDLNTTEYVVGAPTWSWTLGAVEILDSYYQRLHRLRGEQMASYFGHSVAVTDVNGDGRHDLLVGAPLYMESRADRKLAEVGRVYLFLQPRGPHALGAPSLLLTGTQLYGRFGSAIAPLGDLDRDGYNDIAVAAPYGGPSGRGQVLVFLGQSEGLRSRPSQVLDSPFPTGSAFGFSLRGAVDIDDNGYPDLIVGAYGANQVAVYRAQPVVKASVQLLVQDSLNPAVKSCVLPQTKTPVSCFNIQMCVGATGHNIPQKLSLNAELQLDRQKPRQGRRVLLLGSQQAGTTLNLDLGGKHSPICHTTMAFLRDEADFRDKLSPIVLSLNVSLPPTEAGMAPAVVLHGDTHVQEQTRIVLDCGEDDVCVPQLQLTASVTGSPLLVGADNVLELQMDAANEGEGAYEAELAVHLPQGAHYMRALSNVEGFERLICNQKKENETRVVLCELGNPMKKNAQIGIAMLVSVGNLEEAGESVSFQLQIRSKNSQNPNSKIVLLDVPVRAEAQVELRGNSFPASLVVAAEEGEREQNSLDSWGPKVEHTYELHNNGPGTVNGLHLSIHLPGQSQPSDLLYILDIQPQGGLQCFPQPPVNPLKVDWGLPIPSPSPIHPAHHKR
T1 sequence (P08514 891-1039 partner limits assumed): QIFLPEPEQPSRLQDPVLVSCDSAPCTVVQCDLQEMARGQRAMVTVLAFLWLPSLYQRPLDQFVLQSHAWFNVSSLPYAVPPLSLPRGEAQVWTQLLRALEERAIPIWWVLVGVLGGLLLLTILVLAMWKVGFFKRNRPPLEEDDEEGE
T1 sequence (P05106 27-788): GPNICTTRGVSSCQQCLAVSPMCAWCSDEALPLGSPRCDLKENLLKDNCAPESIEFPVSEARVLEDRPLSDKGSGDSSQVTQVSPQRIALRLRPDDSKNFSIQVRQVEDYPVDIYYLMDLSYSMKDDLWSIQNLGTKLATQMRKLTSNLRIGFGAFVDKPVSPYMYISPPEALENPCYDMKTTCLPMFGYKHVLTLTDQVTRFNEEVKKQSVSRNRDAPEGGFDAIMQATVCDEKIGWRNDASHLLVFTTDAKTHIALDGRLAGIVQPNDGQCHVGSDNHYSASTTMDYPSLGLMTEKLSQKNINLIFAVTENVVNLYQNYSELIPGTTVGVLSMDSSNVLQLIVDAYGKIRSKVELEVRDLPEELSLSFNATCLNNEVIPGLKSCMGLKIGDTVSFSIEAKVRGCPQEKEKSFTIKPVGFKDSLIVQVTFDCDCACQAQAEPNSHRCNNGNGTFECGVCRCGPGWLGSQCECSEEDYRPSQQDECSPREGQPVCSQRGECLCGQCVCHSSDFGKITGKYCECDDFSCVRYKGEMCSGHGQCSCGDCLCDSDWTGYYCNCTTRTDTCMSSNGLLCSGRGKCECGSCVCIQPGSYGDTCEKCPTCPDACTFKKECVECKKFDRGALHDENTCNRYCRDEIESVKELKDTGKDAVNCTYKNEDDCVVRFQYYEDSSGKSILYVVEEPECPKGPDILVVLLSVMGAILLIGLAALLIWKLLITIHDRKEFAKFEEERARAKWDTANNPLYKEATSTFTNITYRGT

With `N=C(N)NCCC[C@@H]1NC(=O)[C@@H](Cc2ccc(O)cc2)NC(=O)CSC[C@@H](C(=O)NCCCCN)NC(=O)[C@H](CC(=O)O)NC(=O)CNC1=O` [8/12, cyclo-S-acetyl-dTyr--Arg--Gly--Asp--Cys--NH--X (X = butylamine)] ({CH2CO}-[dY]RGDC-{NH(CH2)4NH2}; thioether N-5), the IC50 is 10 nM on GP IIb IIIa [1] and 5.4 nM at GP IIb IIIa [2].
Turning to `N=C(N)NCCC[C@@H]1NC(=O)[C@@H](Cc2ccc(O)cc2)NC(=O)CSC[C@@H](C(=O)NCCCCCN)NC(=O)[C@H](CC(=O)O)NC(=O)CNC1=O` [8/13, cyclo-S-acetyl-dTyr--Arg--Gly--Asp--Cys--NH--X (X = pentylamine)] ({CH2CO}-[dY]RGDC-{NH(CH2)5NH2}; thioether N-5), the IC50 on GP IIb IIIa [1] is 9 nM; at GP IIb IIIa [2], 5.3 nM.
With `N=C(N)NCCC[C@@H]1NC(=O)[C@@H](Cc2ccc(O)cc2)NC(=O)CSC[C@@H](C(=O)NCCCN)NC(=O)[C@H](CC(=O)O)NC(=O)CNC1=O` [8/22, cyclo-S-acetyl-dTyr--Arg--Gly--Asp--Cys--NH--X (X = propyl amine)] ({CH2CO}-[dY]RGDC-{NH(CH2)3NH2}; thioether N-5), the values for the IC50 at GP IIb IIIa [1] and at GP IIb IIIa [2] were 15 nM and 4.73 nM, respectively.
For `N=C(N)NCCC[C@@H]1NC(=O)[C@@H](Cc2ccc(O)cc2)NC(=O)CSC[C@@H](C(=O)NCCN)NC(=O)[C@H](CC(=O)O)NC(=O)CNC1=O` [8/23, cyclo-S-acetyl-dTyr--Arg--Gly--Asp--Cys--NH--X (X = ethyl amine)] ({CH2CO}-[dY]RGDC-Ethylenediamine; thioether N-5), the values for the IC50 at GP IIb IIIa [1] and at GP IIb IIIa [2] were 14 nM and 4.67 nM, respectively.
In the case of `N=C(N)NCCC[C@H](NC(=O)[C@@H]1CCCC(=O)N[C@H](Cc2ccc(O)cc2)C(=O)N[C@@H](CCCNC(=N)N)C(=O)NCC(=O)N[C@@H](CC(=O)O)C(=O)N1)C(N)=O` [10/19, cyclo(1-5)dTyr--Arg--Gly--Asp--L-α-aminoadipic acid-Arg--NH2] ([dY]RGD[Aad]R-NH2; lactam N-5), the figures for the IC50 on GP IIb IIIa [1] and on GP IIb IIIa [2] were 8.9 nM and 2.9 nM, respectively.
Taken in the same sequence, the figures for `N=C(N)NCCC[C@@H]1NC(=O)[C@@H](Cc2ccc(O)cc2)NC(=O)CCC[C@@H](C(=O)N[C@@H](CCCCN)C(N)=O)NC(=O)[C@H](CC(=O)O)NC(=O)CNC1=O` [10/20, cyclo(1-5)dTyr--Arg--Gly--Asp--L-α-aminoadipic acid-Lys--NH2] ([dY]RGD[Aad]K-NH2; lactam N-5) were 12.4 nM and 2.74 nM.
